Assay results taken from US11591331B2, “PARP1 inhibitors and uses thereof” (Xinthera, Inc., priority 2021, dated 2023).

Key:
Assay in all cases: Cell growth inhibition assay (CellTiter-Glo cell viability, 7 days)
Assay type in all cases: cell-based
[1] = system: DLD-1 parental; conditions: Homo sapiens, 168 h, DLD-1 parental cells
Excerpt: Example A: Cell Growth Inhibition Assay
The objective of this study is to evaluate the effect of invention compounds on cell proliferation through the cell viability assay in DLD-1 BRCA2(−/−) and parental isogenic pair and MDA-MB-436 (mutated BRCA1) cell lines. The CellTiter-Glo (CTG) based cell viability assay is designed to determine the number of viable cells in the culture because of compound effect, by quantifying ATP, which indicates the presence of metabolically active cells.
DLD-1 BRCA2(−/−) and parental isogenic pair were cultured in RPMI 1640 supplemented with 10% fetal bovine serum (FBS), and MDA-MB-436 cells were cultured in DMEM supplemented with 10% FBS. Both are culture at 37° C. with 5% CO2. Invention compounds were distributed to the 384 well plate (Corning, 3764) using Echo acoustic liquid handler to form a 1:3 serially diluted final concentration with top dose of 10 or 30 μM. The cells were seeded into the plate in the density of 50 cells/well (DLD-1 parental), 200 cells/well (DLD-1 BRCA2−/−), or 500 cells/well (MDA-MB-436). After a short spun, the cells were cultured in a well moisturized incubator at 37° C. with 5% CO2 for 7 days without disturbance. The cell viability was measured by CellTiter Glo 2.0 assay kit (Promega, G9243), and growth inhibition rate was calculated and plotted against final compound concentration, and the data were fitted in Xfit to generate IC50.

[2] = system: MDA-MB-436 (mutated BRCA1) cell lines; conditions: Homo sapiens, 168 h, MDA-MB-436 cells
[3] = system: DLD-1 BRCA2(−/−); conditions: Homo sapiens, 168 h, DLD-1 BRCA2(-/-) cells

SMILES	EC50 [1] [µM]	EC50 [2] [µM]	EC50 [3] [µM]
CCc1cc2ncc(CN3CCN(c4ccc(C(=O)NCC(F)F)nc4)CC3)cc2[nH]c1=O [Example 13, N-(2,2-difluoroethyl)-5-{4-[(7-ethyl-6-oxo-5H-1,5-naphthyridin-3-yl)methyl]piperazin-1-yl} pyridine-2-carboxamide]	> 30	0.00054	0.001
CCc1cc2ncc(CN3CCN(c4ccc(C(=O)NC)cc4C#N)CC3)cc2[nH]c1=O [Example 17, 3-cyano-4-{4-[(7-ethyl-6-oxo-5H-1,5-naphthyridin-3-yl)methyl]piperazin-1-yl}-N-methylbenzamide]	> 30	0.0011	0.0021
CNC(=O)c1ccc(N2CCN(Cc3ccc4c5c(c(=O)[nH]c4c3)CCC5)CC2)cn1 [Example 10, N-methyl-5-[4-({4-oxo-1H,2H,3H,5H-cyclopenta[c]quinolin-7-yl}methyl)piperazin-1-yl]pyridine-2-carboxamide]	1400	0.00068	0.0026
CCc1cc2ncc(CN3CCN(c4ccc(C(=O)NC)nc4)[C@H]4C[C@H]43)cc2[nH]c1=O (single isomer, unassigned) [Example 3B]	29	0.0015	0.0032
[2H]C([2H])(c1cnc2cc(CC)c(=O)[nH]c2c1)N1CCN(c2cnc(C(=O)NC)c(F)c2)CC1 [Example 35]	> 30	0.0013	0.0023
CCc1cc2ncc(CN3CCN(c4ccc(C(=O)NC)nc4)[C@@H](C)C3)cc2[nH]c1=O (racemic) [Example 27]	32	0.001	0.0041
CCc1cc2ncc(CN3CCN(c4ccc(C(=O)NC)nc4C4CC4)CC3)cc2[nH]c1=O [Example 6, 6-cyclopropyl-5-(4-((7-ethyl-6-oxo-5,6-dihydro-1,5-naphthyridin-3-yl)methyl)piperazin-1-yl)-N-methylpicolinamide]	11	0.0017	0.0028
CCc1cc2ncc(CN3CCN(c4ccc(C(=O)NC)nc4)C[C@H]3C)cc2[nH]c1=O (racemic) [Example 161]	> 10		0.022
CCc1cc2ncc(CN3CCN(c4ccc(C(=O)NC)c(F)c4)CC3)cc2[nH]c1=O [Example 7, 4-{4-[(7-ethyl-6-oxo-5H-1,5-naphthyridin-3-yl)methyl]piperazin-1-yl}-2-fluoro-N-methylbenzamide]	300	0.0013	0.0031
CCc1cc2ncc(CN3CC=C(c4ccc(C(=O)NC)nc4)CC3)cc2[nH]c1=O [Example 8, 1′-((7-ethyl-6-oxo-5,6-dihydro-1,5-naphthyridin-3-yl)methyl)-N-methyl-1′,2′,3′,6′-tetrahydro-[3,4′-bipyridine]-6-carboxamide]	89	0.00025	0.001
CCc1cc2ncc(CN3C[C@@H]4C(c5ccc(C(=O)NC)nc5)[C@@H]4C3)cc2[nH]c1=O (stereo partly drawn) [Example 146]	> 30	0.0092	0.32
CCc1cc2ncc(CN3CCN(c4ccc(C(=O)NC)nc4C(F)F)CC3)cc2[nH]c1=O [Example 14, 6-(difluoromethyl)-5-{4-[(7-ethyl-6-oxo-5H-1,5-naphthyridin-3-yl)methyl]piperazin-1-yl}-N-methylpyridine-2-carboxamide]	> 30	0.00053	0.001
CCc1cc2ncc(CN3CCN4c5ccc(C(=O)NC)nc5OC[C@H]4C3)cc2[nH]c1=O [Example 22A, (R)-3-((7-ethyl-6-oxo-5,6-dihydro-1,5-naphthyridin-3-yl)methyl)-N-methyl-1,2,3,4,4a,5-hexahydropyrazino[1,2-d]pyrido[2,3-b][1,4]oxazine-8-carboxamide]	> 30	0.001	0.0015
CNC(=O)c1ccc(N2CCN(Cc3cnc4c(c3)[nH]c(=O)c3ccoc34)CC2)cn1 [Example 72]	> 30	0.0025	0.0042
CCc1cc2ncc(CN3CCN(c4ccc(C(=O)NC)nc4C#N)[C@H](C)C3)cc2[nH]c1=O [Example 4, 6-cyano-5-[(2R)-4-[(7-ethyl-6-oxo-5H-1,5-naphthyridin-3-yl)methyl]-2-methylpiperazin-1-yl]-N-methylpyridine-2-carboxamide]	> 30	0.00069	0.0016
CCc1cc2ccc(CN3CCN(c4ccc(C#N)cn4)CC3)cc2[nH]c1=O [Example 9, 6-{4-[(3-ethyl-2-oxo-1H-quinolin-7-yl)methyl]piperazin-1-yl}pyridine-3-carbonitrile]	13	0.0015	0.0035
CCc1cc2ncc(CN3CCN(c4cnc(C(=O)NC)s4)CC3)cc2[nH]c1=O [Example 30]	40	0.058	0.22
CCc1cc2ncc(CN3CCN(c4ccc(C(=O)NC)nc4)[C@H](CF)C3)cc2[nH]c1=O [Example 68]	> 30	0.0015	0.0041
CCc1cc2ncc(CN3CCN(c4ccc(C(=O)N[C@H](C)CO)nc4)CC3)cc2[nH]c1=O [Example 59]		0.0078	0.016
[2H]C([2H])([2H])NC(=O)c1ccc(N2CCN(Cc3ccc4c5c(c(=O)[nH]c4c3)CCO5)CC2)cn1 [Example 73]		0.0022	0.0042
CNC(=O)c1ccc(N2CCN(Cc3cnc4c(C)c(Cl)c(=O)[nH]c4c3)CC2)cn1 [Example 148, 5-{4-[(7-chloro-8-methyl-6-oxo-5H-1,5-naphthyridin-3-yl)methyl]piperazin-1-yl}-N-methylpyridine-2-carboxamide]		0.0015	0.002
CCc1cc2ncc(CN3CCN(c4ccc(C(=O)NC[C@@H](C)O)nc4)CC3)cc2[nH]c1=O [Example 57]		0.0036	0.011
[2H]C([2H])([2H])NC(=O)c1ccc(N2CCN(Cc3cnc4cc(C5CC5)c(=O)[nH]c4c3)[C@H]3C[C@H]32)cn1 (single isomer, unassigned) [Example 107]		0.0025	0.0091
Cc1cnc(N2CCN(Cc3cnc4cc(C5CC5)c(=O)[nH]c4c3)CC2)n1C [Example 136]		0.00093	0.002
[2H]C([2H])([2H])NC(=O)c1ccc(N2CCN(Cc3cnc4cc(C5CC5)c(=O)[nH]c4c3)CC2)cn1 [Example 67]		0.0011	0.0018
N#CC12CC(N3CCN(Cc4cnc5cc(Cl)c(=O)[nH]c5c4)CC3)(C1)C2 [Example 157]		0.041	0.061
CNC(=O)c1ccc(N2CCN(Cc3cnc4cc(C5CC5)c(=O)[nH]c4c3)[C@H]3C[C@H]32)cn1 (single isomer, unassigned) [Example 110]		0.0033	0.0057
CCc1cc2ncc(CN3CCC(c4cnc(C(=O)NC)c(F)c4)CC3)cc2[nH]c1=O [Example 23, 5-{1-[(7-ethyl-6-oxo-5H-1,5-naphthyridin-3-yl)methyl]piperidin-4-yl}-3-fluoro-N-methylpyridine-2-carboxamide]		0.0022	0.006
CCc1cc2nc(C#N)c(CN3CCN(c4ccc(C(=O)NC)nc4)CC3)cc2[nH]c1=O [Example 141]		0.0041	0.0064
